Experimental data reported in patent publication US8093239B2, “Imidazopyridine kinase inhibitors” (GlaxoSmithKline LLC, priority 2007, dated 2012).

How the values were obtained:
[1] = system: Colo-205 tumors (colon carcinoma cell line); assay: In vivo efficacy, Colo-205 tumor bearing mice; parameters: species or system mouse; conditions: Colo-205 study
Description: (§1) In addition to the LISN xenograft efficacy studies, Example 57 has also been assessed in vivo in two other mouse models of cancer, including: Colo-205 tumor bearing mice (colon carcinoma cell line) and BT474 tumor bearing mice (breast carcinoma cell line). Forty female nude mice bearing Colo-205 tumors (average tumor size of 200 mm3) were randomized into five groups of eight mice and dosed with either vehicle (20% SBE pH3.5) or Example 57 at 100, 30, 10 mg/kg QD or 30 mg/kg BID for 21 days. The groups of mice dosed with the higher doses of Example 57 (100 mg/kg QD and 30 mg/kg BID) lost greater than 20% body weight within 10 days of dosing so were taken off the study and allowed to recover. […] The higher doses of 100 mg/kg QD×10 and 30 mg/kg BID×10 achieved 72 and 49% tumor growth inhibition respectively.

[2] = system: BT474 cell tumors (breast carcinoma cell line); assay: In vivo efficacy, BT474 tumor bearing mice; parameters: species or system mouse; conditions: BT474 study, all groups (60, 30, 15 mg/kg QD, 15 mg/kg BID)
Description: as §1
Due to the body weight loss seen with the higher doses in the Colo-205 xenograft efficacy study, the dosing regime was altered for the follow up BT474 study. Forty female nude mice bearing subcutaneous BT474 cell tumors (average tumor size of 200 mm3) were randomized into five groups each containing eight mice and dosed with either vehicle (20% SBE pH3.5) or Example 57 at 60, 30 or 15 mg/kg QD or 15 mg/kg BID for 21 days. Note the maximal QD dose was reduced from 100 mg/kg to 60 mg/kg and the BID dose reduced from 30 mg/kg to 15 mg/kg. […]

[3] = system: LISN cell (mouse 3T3 fibroblasts transduced with human IGF-1R) tumors; assay: In vivo efficacy, mice bearing LISN cell tumors; conditions: for tumor growth inhibition at day 21: LISN tumors (~362 mm^3)
Description: E. In Vivo Efficacy—Mouse Models
The efficacy of the compounds of Examples 57 and 58 were assessed together in an in vivo efficacy experiment performed on mice bearing LISN cell (mouse 3T3 fibroblasts transduced with human IGF-1R) tumors. Fifty six female nude mice bearing subcutaneous LISN cell tumors were measured for tumor size and body weight and block randomized into seven groups of eight mice with an equal average tumor volume of approximately 200 mm3. Mice were dosed with either vehicle (20% SBE pH3.5), Example 57 or Example 58. The dosing schedules for each compound were based on previous experiments with the compounds and doses chosen to give the highest tumor growth inhibition and a dose response. Example 58 was dosed at 30, 100 and 300 mg/kg QD for 21 days while Example 57 was dosed at 30 mg/kg QD for 21 days, 15 mg/kg BID for 21 days and 30 mg/kg QD×3 days/week for 3 weeks.
The tumors on mice being treated with vehicle grew with the expected exponential growth throughout the 21 day study. […] The lower dose of 30 mg/kg of Example 58 achieved 28% tumor growth inhibition.
The efficacy of the compounds of Examples 237 and 219 were assessed together in an in vivo efficacy experiment performed on mice bearing LISN cell (mouse 3T3 fibroblasts transduced with human IGF-1R) tumors. Sixty four female nude mice bearing subcutaneous LISN cell tumors were measured for tumor size and body weight and block randomized into eight groups of eight mice with an equal average tumor volume of approximately 362 mm^3. Mice were dosed with either vehicle (20% SBE pH3.5), Example 237 or Example 219. The dosing schedules for each compound were based on previous experiments with the compounds and doses chosen to give the highest tumor growth inhibition and a dose response. Example 237 was administered at 30 and 60 mg/kg QD for 21 days and 30 mg/kg BID for 21 days while Example 219 was administered at 50 and 100 mg/kg QD for 21 days, 25 and 50 mg/kg BID for 21 days.
The tumors on mice being treated with vehicle grew with the expected exponential growth throughout the 21 day study. […] The lower dose of 30 mg/kg QD of Example 237 achieved 15% tumor growth inhibition at day 21 (note: 2 animals were euthanized prior to the last measurement). […] This recovered to 3% by the end of dosing and fully recovered after dosing was concluded. […] This recovered fully within 4 days after the completion of dosing.

[4] = LISN study (~362 mm^3), 100 mg/kg and 50 mg/kg QD

COc1cc(N2CCC(N3CCN(CCF)CC3)CC2)ccc1Nc1nccc(-c2c(-c3cccc(C(=O)Nc4c(F)cccc4F)c3)nc3ccccn23)n1 [Example 57, N-(2,6-difluorophenyl)-3-[3-(2-{[4-{4-[4-(2-fluoroethyl)-1-piperazinyl]-1-piperidinyl}-2-(methyloxy)phenyl]amino}-4-pyrimidinyl)imidazo[1,2-a]pyridin-2-yl]benzamide]
body weight lost ([1]; 100 mg/kg QD and 30 mg/kg BID, within 10 days of dosing): greater than 20%
body weight loss ([1]; 30 and 10 mg/kg QD×21): no body weight loss
body weight loss [2]: no body weight loss
body weight loss ([3]; LISN study, 30 mg/kg QD and 15 mg/kg BID treated groups, 21 days): no body weight loss
tolerability ([3]; LISN study, 30 mg/kg QD and 15 mg/kg BID, 21 days): well tolerated
body weight loss ([3]; LISN study, 30 mg/kg QD×3 days/week for 3 weeks, over the three consecutive days of dosing, recovered in the four days between doses): significant body weight loss

COc1cc(N2CCC(N3CCN(S(C)(=O)=O)CC3)CC2)ccc1Nc1nccc(-c2c(-c3cccc(C(=O)Nc4c(F)cccc4F)c3)nc3ccccn23)n1 [Example 58, N-(2,6-difluorophenyl)-3-(3-{2-[(2-(methyloxy)-4-{4-[4-(methylsulfonyl)-1-piperazinyl]-1-piperidinyl}phenyl)amino]-4-pyrimidinyl}imidazo[1,2-a]pyridin-2-yl)benzamide]
body weight loss ([3]; LISN study, 30, 100 and 300 mg/kg QD for 21 days, throughout the study): no effect of Example 58 on body weight loss

CCOc1cc(N2CCC(CCS(C)(=O)=O)CC2)c(C)cc1Nc1nccc(-c2c(-c3ccc(OC)c(C(=O)Nc4c(F)cccc4F)c3)nc3ccccn23)n1 [Example 219, N-(2,6-difluorophenyl)-5-(3-{2-[(2-(ethyloxy)-5-methyl-4-{4-[2-(methylsulfonyl)ethyl]-1-piperidinyl}phenyl)amino]-4-pyrimidinyl}imidazo[1,2-a]pyridin-2-yl)-2-(methyloxy)benzamide]
time to full recovery of body weight after the completion of dosing ([3]; LISN study (~362 mm^3), 25 mg/kg BID and 50 mg/kg BID): ≤ 4 days
body weight loss ([3]; LISN study (~362 mm^3), 25 mg/kg BID for 21 days): 4%
body weight loss ([3]; LISN study (~362 mm^3), 50 mg/kg BID for 21 days): 6%
body weight loss [3, 4]: no body weight loss
tolerability [3, 4]: well tolerated

CCc1cc(Nc2nccc(-c3c(-c4ccc(OC)c(C(=O)Nc5c(F)cccc5F)c4)nc4ccccn34)n2)c(OC)cc1N1CCC(N2CCN(S(C)(=O)=O)CC2)CC1 [Example 237, N-(2,6-difluorophenyl)-5-(3-{2-[(5-ethyl-2-(methyloxy)-4-{4-[4-(methylsulfonyl)-1-piperazinyl]-1-piperidinyl}phenyl)amino]-4-pyrimidinyl}imidazo[1,2-a]pyridin-2-yl)-2-(methyloxy)benzamide]
initial body weight loss ([3]; LISN study (~362 mm^3), 30 mg/kg BID): 6%
body weight loss by the end of dosing ([3]; LISN study (~362 mm^3), 30 mg/kg BID, fully recovered after dosing was concluded): 3%
body weight loss ([3]; LISN study (~362 mm^3), other groups (30 and 60 mg/kg QD)): no effect on body weight loss
tumor growth inhibition at day 21 ([3]; 30 mg/kg BID for 21 days): 84%
tumor growth inhibition at day 21 ([3]; 30 mg/kg QD for 21 days, 2 animals euthanized prior to the last measurement): 15%
tumor growth inhibition at day 21 ([3]; 60 mg/kg QD for 21 days): 41%
